From BindingDB's records for PubMed 11082457 (Centre De Recherches De Croissy, 2000) come the findings set out here.

Test [1] deals with T1, Alpha-1A adrenergic receptor (Homo sapiens, UniProt P35348).
T1 sequence (P35348 whole entry): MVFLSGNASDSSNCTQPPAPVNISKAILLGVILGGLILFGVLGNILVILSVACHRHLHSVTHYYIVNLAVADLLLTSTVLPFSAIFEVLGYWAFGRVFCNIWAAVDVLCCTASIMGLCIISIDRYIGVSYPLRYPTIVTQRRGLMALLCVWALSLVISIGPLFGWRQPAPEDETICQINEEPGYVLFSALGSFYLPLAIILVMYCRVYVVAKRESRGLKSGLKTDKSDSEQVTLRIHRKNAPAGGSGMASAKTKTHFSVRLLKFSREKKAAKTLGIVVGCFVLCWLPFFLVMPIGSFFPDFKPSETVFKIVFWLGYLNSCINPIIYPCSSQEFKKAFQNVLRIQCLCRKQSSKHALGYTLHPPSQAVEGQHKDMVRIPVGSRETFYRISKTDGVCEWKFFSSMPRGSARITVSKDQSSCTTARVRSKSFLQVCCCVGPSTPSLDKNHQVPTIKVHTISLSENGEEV

The target of a further test is T2, Nischarin (Bos mutus, UniProt L8IEU8).
T2 sequence (L8IEU8 whole entry): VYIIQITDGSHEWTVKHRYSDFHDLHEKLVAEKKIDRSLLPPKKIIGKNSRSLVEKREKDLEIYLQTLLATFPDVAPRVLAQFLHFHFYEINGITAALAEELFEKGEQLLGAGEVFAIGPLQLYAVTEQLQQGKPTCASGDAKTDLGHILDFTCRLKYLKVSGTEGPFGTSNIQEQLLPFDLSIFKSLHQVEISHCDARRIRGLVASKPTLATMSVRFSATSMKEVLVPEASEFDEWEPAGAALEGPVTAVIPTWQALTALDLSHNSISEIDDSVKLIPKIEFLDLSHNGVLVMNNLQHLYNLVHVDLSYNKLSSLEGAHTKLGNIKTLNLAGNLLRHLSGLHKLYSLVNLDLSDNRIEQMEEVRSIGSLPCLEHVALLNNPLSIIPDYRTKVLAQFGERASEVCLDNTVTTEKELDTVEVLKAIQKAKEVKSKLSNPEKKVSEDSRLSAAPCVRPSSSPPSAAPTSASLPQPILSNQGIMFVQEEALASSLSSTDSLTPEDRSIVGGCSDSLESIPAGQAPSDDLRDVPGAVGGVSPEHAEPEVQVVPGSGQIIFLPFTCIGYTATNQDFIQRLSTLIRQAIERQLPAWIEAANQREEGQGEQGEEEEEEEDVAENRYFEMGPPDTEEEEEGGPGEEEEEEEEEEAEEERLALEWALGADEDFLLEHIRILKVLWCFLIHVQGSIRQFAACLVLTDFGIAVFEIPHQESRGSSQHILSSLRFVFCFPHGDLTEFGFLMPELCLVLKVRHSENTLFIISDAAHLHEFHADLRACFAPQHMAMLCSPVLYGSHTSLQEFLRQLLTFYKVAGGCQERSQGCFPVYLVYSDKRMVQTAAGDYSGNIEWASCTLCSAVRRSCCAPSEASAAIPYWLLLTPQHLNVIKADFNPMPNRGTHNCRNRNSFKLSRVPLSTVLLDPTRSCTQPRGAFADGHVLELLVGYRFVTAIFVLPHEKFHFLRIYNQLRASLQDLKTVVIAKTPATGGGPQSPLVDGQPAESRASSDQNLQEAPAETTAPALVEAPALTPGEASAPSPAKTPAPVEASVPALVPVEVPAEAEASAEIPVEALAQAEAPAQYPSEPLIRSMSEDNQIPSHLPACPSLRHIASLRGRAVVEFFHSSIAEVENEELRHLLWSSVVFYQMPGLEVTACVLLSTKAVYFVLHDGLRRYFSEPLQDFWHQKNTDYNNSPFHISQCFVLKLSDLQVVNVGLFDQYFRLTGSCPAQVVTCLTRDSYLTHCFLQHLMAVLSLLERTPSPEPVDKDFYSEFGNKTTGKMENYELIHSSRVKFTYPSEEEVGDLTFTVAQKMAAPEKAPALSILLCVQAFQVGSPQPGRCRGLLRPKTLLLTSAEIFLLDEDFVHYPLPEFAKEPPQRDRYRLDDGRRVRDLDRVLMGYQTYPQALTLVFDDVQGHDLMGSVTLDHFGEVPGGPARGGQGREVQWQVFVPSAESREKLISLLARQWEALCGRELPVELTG

Test [2] has as its target Sodium-dependent noradrenaline transporter (Homo sapiens, UniProt P23975).
Test [3] concerns the target T3, Alpha-1D adrenergic receptor (Homo sapiens, UniProt P25100).
T3 sequence (P25100 whole entry): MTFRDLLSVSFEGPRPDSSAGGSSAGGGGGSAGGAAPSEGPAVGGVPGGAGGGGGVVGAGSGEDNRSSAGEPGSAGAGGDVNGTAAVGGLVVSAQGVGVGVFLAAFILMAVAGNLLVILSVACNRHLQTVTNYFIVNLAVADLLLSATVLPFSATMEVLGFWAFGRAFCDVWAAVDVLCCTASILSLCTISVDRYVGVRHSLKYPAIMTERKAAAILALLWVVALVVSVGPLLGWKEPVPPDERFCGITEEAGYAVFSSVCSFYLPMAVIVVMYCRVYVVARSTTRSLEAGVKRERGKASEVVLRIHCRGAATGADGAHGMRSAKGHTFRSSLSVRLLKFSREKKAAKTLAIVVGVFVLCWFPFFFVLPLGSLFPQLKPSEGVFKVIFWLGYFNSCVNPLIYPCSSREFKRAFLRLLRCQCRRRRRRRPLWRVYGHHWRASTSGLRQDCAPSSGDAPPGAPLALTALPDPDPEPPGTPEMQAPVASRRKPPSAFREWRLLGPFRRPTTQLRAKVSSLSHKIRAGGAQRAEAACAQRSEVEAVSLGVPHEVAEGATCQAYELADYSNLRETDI

Sodium-dependent noradrenaline transporter, sequence (P23975 whole entry): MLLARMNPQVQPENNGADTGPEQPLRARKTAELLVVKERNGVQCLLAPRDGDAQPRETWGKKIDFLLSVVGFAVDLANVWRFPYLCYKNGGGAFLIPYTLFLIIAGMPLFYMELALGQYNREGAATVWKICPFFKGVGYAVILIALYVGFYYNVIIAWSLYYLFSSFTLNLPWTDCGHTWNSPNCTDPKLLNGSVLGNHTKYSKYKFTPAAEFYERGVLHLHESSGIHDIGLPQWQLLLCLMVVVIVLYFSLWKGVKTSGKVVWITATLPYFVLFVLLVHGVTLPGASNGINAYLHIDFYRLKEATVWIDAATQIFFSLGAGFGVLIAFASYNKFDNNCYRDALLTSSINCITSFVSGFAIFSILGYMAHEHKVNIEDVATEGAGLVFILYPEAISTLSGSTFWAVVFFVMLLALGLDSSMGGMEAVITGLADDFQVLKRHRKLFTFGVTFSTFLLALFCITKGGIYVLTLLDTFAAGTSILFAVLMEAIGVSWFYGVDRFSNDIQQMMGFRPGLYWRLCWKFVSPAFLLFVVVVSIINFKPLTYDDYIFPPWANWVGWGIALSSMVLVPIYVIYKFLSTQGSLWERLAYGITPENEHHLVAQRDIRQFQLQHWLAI

By Ki is commonly meant the equilibrium dissociation constant of an inhibitor or competing ligand from its target. The low end stands for higher affinity, the high end for lower affinity. For the compound `Cc1cccc([C@@H](C)c2cnc[nH]2)c1C`, the Ki in test [1] turned out to be 200 nM; at Nischarin, 200 nM; in test [2], 1000 nM; in test [3] it was 79.4 nM.

Consider `NC1=NC2(CCc3ccccc3C2)CO1` (stereo not drawn) [S18616], for which the Ki stood at 3.98 nM in test [1], 39.8 nM at Nischarin, 1000 nM in test [2] and 25.1 nM in test [3].
